Reference: patent US20080058299A1, “Method of treating or preventing bone deterioration or osteoporosis” (priority 2005, published 2008)
Where “and” joins values, the source holds several entries; their conditions need not be identical. Equal entries are not always repeated. Where two headings read alike, the source gives them in different places.

Key:
[1] = system: hypogonadal men; assay: Bone mineral density by DXA in hypogonadal men; type: in vivo
Procedure: (§1) Ten men with severe and untreated hypogonadism due to known disease were entered into the study.
(§2) All subjects were assessed by dual energy X-ray absorptiometry (DXA) and magnetic resonance microimaging (μMRI) at 0, 6, 12 and 24 months. The hypogonadal subjects were also assessed for markers of bone metabolism at 0, 3, and 6 months.
Bone mineral density (BMD) of the anterior-posterior lumbar spine (L1-L4) and of the right hip was determined by DXA using Hologic densitometers (Hologic, Inc., Bedford, Mass.), a QDR-4500A for the first year of the study and a Dephi A for the second. […] Scans from the same subject were evaluated by the “compare” feature of the DXA instrument. The coefficients of variation for long-term instrument stability, as assessed by daily measurements of a phantom, were <0.9%.
(§3) For all parameters, changes from 0 to 24 months were tested by multivariate analysis of variance, one factor repeated measures design. If the change from 0 to 24 months was significant, pair-wise comparisons of each treatment time (6, 12, and 24 months) against pretreatment were determined with Dunnett's test. Missing values were imputed by the method of last observation carried forward. A type I error rate of 0.05 was used for determining statistical significance. SAS statistical software, version 9.1 (SAS Institute, Inc., Cary, N.C.) was used for all analysis.

[2] = Serum testosterone and estradiol concentrations in hypogonadal men treated with AndroGel for 24 months; type: in vivo
Source text: (§4) Ten men with severe and untreated hypogonadism due to known disease were entered into the study. […] All ten subjects had secondary hypogonadism. Eight subjects had pituitary adenomas, one had pinealoma, and one had Kallmann's syndrome. Hypogonadism developed in adulthood in nine. […] The estimated duration of hypogonadism was 2-30 years (median, 5 years). […] Of the two who had been treated, one had not been treated for four years and the other for 20 years before entering the study. The median age at entry was 51 years (range 31-78).
Estradiol was measured by ultrasensitive immunoradiometric assay (DSL, Webster, Tex.). Intra- and interassay coefficients of variation were <10%.

[3] = cited from earlier work
[4] = system: hypogonadal men; assay: Magnetic resonance microimaging (μMRI) of trabecular architecture of the right distal tibia; type: in vivo
Source text: as §4, §2
Magnetic resonance microimaging (μMRI) of the right distal tibia was performed using a Signa 1.5 Tesla MR scanner (GE Medical Systems, Milwaukee, Wis.) and a custom-designed receive-only radiofrequency phased array surface coil. The coil was placed on the anterior right tibia, the edge 1 cm proximal to the midpoint of the medial malleolus, and the right foot was immobilized. Twenty-eight images were obtained to map trabecular architecture. Song H K, et al., Magn. Reson. Med., 41:947-53 (1999). […] The data were processed using a custom-designed program written in IDL (Interactive Data Language, Boulder, Colo.). Wehrli F W, et al., J. Bone Miner. […] The data were motion-corrected, filtered and Fourier transformed. To ensure that the same volume was analyzed at each time point for each subject, the images corresponding to the 0, 6, 12, and 24 month examinations of each subject were matched for volume of interest by identifying similar trabecular features. After the volume of interest was selected manually on each of the matched slices by tracing a line approximately 1 mm from the endocortical boundary on the anterior half of the distal metaphysis, bone volume fraction maps were computed. Subvoxel processing yielded a voxel size of 69×69×103 μm^3. Hwang S N, et al., Magn. Reson. Med., 47 (2002). A cylindrical core measuring 6.85 mm in diameter was obtained from the center of the volume of interest. (FIG. 3).
Digital topological analysis of the trabecular network was performed on the entire volume of interest. Gomberg BR, et al., IEEE Trans. […] The topological class of each image voxel was determined, yielding the density of surface voxels, curve voxels, and voxels part of mutual junctions. The topological analysis began with binarization of the three-dimensional images, followed by skeletonization, which converted the plate-like elements of the trabecular network to surfaces and the rodlike elements to curves. Each voxel was then classified as belonging to a surface, curve, or junction between these voxel types. […] One composite parameter was the surface-to-curve ration, the ratio of all surface voxels to all curve voxels. The higher the ratio, the more intact in the trabecular network, and vice versa. The second composite parameter was the topological erosion index, a ratio of parameters that are expected to increase upon trabecular deterioration (Curve edge and curve interior voxels, surface and profile edges, and curve-curve junction voxels) to those expected to decrease (surface interior voxels and surface-surface junctions). The lower the topological erosion index, the smaller the degree to which the trabecular network has deteriorated. Trabecular thickness was determined by an independent program based on the concept of fuzzy distance transform. Saha P K, et al., IEEE Trans.
as §3, with “A type I error rate of 0.05 was used for determining statistical significance. SAS statistical software, version 9.1 (SAS Institute, Inc., Cary, N.C.) was used for all analysis.” left out

[5] = system: hypogonadal men; assay: Markers of bone metabolism in hypogonadal men; type: in vivo
Procedure: as §1, §2
After an overnight fast, blood and a timed 2-hour urine sample were collected. Serum and urine samples were frozen at −70° C. The markers and methods of assay were as follows: bone-specific alkaline phosphatase (BAP), immunoradiometric assay (Tandem-R Ostase, Beckman-Coulter, Inc., Fullerton, Calif.); osteoprotegerin, enzyme-linked immunosorbent assay (American Laboratory Products Company, Windham, N.H.); intact N-terminal propeptide of type I procollagen (PINP), radioimmunoassay, (Orion Diagnostica UniQ, IDS, Inc. Fountain Hills, Ariz.); cross-linked N-telopeptides of type I collagen (NTx), enzyme-linked immunosorbent assay (Osteomark, Ostex International, Inc. Seattle, Wash.). For each assay, all samples were measured in a single assay run.

[6] = system: postmenopausal women; conditions: 32 postmenopausal women, average 19 months, versus 19 placebo-treated women; cited from earlier work
[7] = distal tibia, 24 Months of treatment

C[C@]12CC[C@H]3[C@@H](CCC4=CC(=O)CC[C@@]43C)[C@@H]1CC[C@@H]2O [Testosterone]
Femoral Neck BMD, % Change 0-24 months [1]: 2.1 ± 5.1% | Femoral Neck BMD, Change 0-24 months [1]: 0.016 ± 0.038 g/cm^2 | Intertrochanteric BMD, % Change 0-24 months [1]: 4.4 ± 3.7% | Intertrochanteric BMD, Change 0-24 months [1]: 0.049 ± 0.037 g/cm^2 | Spine BMD, % Change 0-24 months [1]: 7.4 ± 5.1% | Spine BMD, Change 0-24 months [1]: 0.069 ± 0.053 g/cm^2 | Total Hip BMD, % Change 0-24 months [1]: 3.8 ± 3.4% | Total Hip BMD, Change 0-24 months [1]: 0.034 ± 0.029 g/cm^2 | Trochanter BMD, % Change 0-24 months [1]: 4.0 ± 4.7% | Trochanter BMD, Change 0-24 months [1]: 0.027 ± 0.030 g/cm^2 | Ward's Triangle BMD, % Change 0-24 months [1]: 5.1 ± 10.1% | Ward's Triangle BMD, Change 0-24 months [1]: 0.028 ± 0.060 g/cm^2 | Femoral Neck BMD ([1]; 24 Months of treatment): 0.828 ± 0.145 g/cm^2 | Intertrochanteric BMD ([1]; 24 Months of treatment): 1.206 ± 0.205 g/cm^2 | Spine BMD ([1]; 24 Months of treatment): 1.000 ± 0.219 g/cm^2 | Total Hip BMD ([1]; 24 Months of treatment): 0.994 ± 0.162 g/cm^2 | Ward's Triangle BMD ([1]; 24 Months of treatment): 0.616 ± 0.172 g/cm^2 | Spine BMD, % Change 0-24 months ([1]; listed as testosterone): 7.4% | concentration at 3 months ([2]; male, human, serum, topical, AndroGel 5-10 g/day, month 3): 6.56 ng/mL and 22.8 nM | serum testosterone concentration (in words) ([2]; throughout the 24 months of treatment): remained normal | bound to protein in the blood ([3]; circulating testosterone): 98% | share bound weakly to albumin ([3]; in men): 60% | share of binding to sex hormone binding globulin (SHBG) ([3]; in men): approximately 40% | Bone Volume Fraction, % Change 0-24 months ([4]; distal tibia): 5.0 ± 4.2% | Bone Volume Fraction, Change 0-24 months ([4]; distal tibia): 0.005 ± 0.004 | Trabecular Thickness, % Change 0-24 months ([4]; distal tibia): 1.5 ± 0.5% | Trabecular Thickness, Change 0-24 months ([4]; distal tibia): 1.7 ± 0.6 μ | Bone Volume Fraction [4, 7]: 0.103 ± 0.011 | Trabecular Thickness [4, 7]: 120.5 ± 3.8 μ | Bone Volume Fraction, % Change 0-24 months ([4]; distal tibia, listed as testosterone): 5% | increase of trabecular thickness during treatment ([4]; starting at 6 months): ~2% | bone-specific alkaline phosphatase (BAP), in words ([5]; 0 to 6 months): did not change | serum intact N-terminal propeptide of type I procollagen (PINP) ([5]; 3 months of treatment): 71.3 ± 32.1 µg/L | Serum osteoprotegerin ([5]; 6 months of treatment): 4.29 ± 0.82 pmol/L | Urine NTx, in words ([5]; baseline to 6 months): did not change

CC[C@H](C)[C@H](NC(=O)[C@H](CCC(=O)O)NC(=O)[C@H](CO)NC(=O)[C@@H](NC(=O)[C@@H](N)CO)C(C)C)C(=O)N[C@@H](CCC(N)=O)C(=O)N[C@@H](CC(C)C)C(=O)N[C@@H](CCSC)C(=O)N[C@@H](Cc1cnc[nH]1)C(=O)N[C@@H](CC(N)=O)C(=O)N[C@@H](CC(C)C)C(=O)NCC(=O)N[C@@H](CCCCN)C(=O)N[C@@H](Cc1cnc[nH]1)C(=O)N[C@@H](CC(C)C)C(=O)N[C@@H](CC(N)=O)C(=O)N[C@@H](CO)C(=O)N[C@@H](CCSC)C(=O)N[C@@H](CCC(=O)O)C(=O)N[C@@H](CCCN=C(N)N)C(=O)N[C@H](C(=O)N[C@@H](CCC(=O)O)C(=O)N[C@@H](Cc1c[nH]c2ccccc12)C(=O)N[C@@H](CC(C)C)C(=O)N[C@@H](CCCN=C(N)N)C(=O)N[C@@H](CCCCN)C(=O)N[C@@H](CCCCN)C(=O)N[C@@H](CC(C)C)C(=O)N[C@@H](CCC(N)=O)C(=O)N[C@@H](CC(=O)O)C(=O)N[C@H](C(=O)N[C@@H](Cc1cnc[nH]1)C(=O)N[C@@H](CC(N)=O)C(=O)N[C@@H](Cc1ccccc1)C(=O)O)C(C)C)C(C)C [rhPTH]
trabecular connectivity, in words [6]: significantly increased their trabecular connectivity
